Consider six compounds from US7220784B2, “Substituted stilbenes and their reactions” (priority 2000, dated 2007).

pIC50: −log10 of the molar value. Where two headings read alike, the source gives them in different places. Where only a bound is given, the exact number is not on record here.

Data set [1] relates to K562 human myelogeneous leukaemia cell line. Nature of the data set: Cytotoxicity/growth inhibition assay (MTT), K562. The following applies: MTT, read-out: K562 IC50. Format: cell-based. The gist of the method:
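Growth inhibition of P388 murine and K562 human leukaemia cells measured by MTT assay.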

For data set [2], the system named is T1, tubulin.
T1 construct: other: concentration required to reduce assembly of tubulin by 50%
Briefly: Inhibition of tubulin assembly. The data set is classed as biochemical. The following applies: concentration required to reduce assembly of tubulin by 50%. The protocol:
(§1) The following assays (1–5) were carried out as described in our paper (Woods, et al, British Journal of Cancer, 71, 705–711 (1995)). In addition to the cell lines described in this paper, other established human cell lines (K562, HUVEC, H460, BE, H529, and HT29) were used in the cytotoxicity/growth inhibition assay. • (1) Inhibition of tubulin assembly. The figure quoted is the concentration required to reduce assembly of tubulin by 50%. Tubulin assembly is monitored by light scatter/absorption at 350 nm.

Data set [3] has as its system A2780. Nature of the data set: Cytotoxicity/growth inhibition assay (MTT), A2780. Format: cell-based. The following applies: read-out: A2780 IC50. The protocol:
as §1
(§2) (2) Competition for the colchicine binding site on tubulin. The figure quoted represents the % of ^3H-colchicine bound following co-incubation of test compound and ^3H-cochicine with isolated tubulin. Where ester pro-drugs were used the experiments were carried out in the presence and absence of porcine liver esterase. • (3) Cytotoxicity/growth inhibition assay. This was carried out by the MTT assay. • (4) Permeability (shape-change) assay in endothelial cells. This was carried out using a method based on that of Watts et al. (Anticancer Res., 17, 71–75, (1997)). This involved the diffusion of a fluorescently labelled dextran through a barrier of endothelial cells (HUVEC) grown to confluence on a porous membrane. The effect of agents to alter the shape of these cells results in an increase in the permeability of the cells to the dye. The figure represents the increase in permeability over control cultures when drug is added (30 minutes, 1 mM.). • (5) Experiments to study the anti-vascular effects of these agents were carried out as described previously by our group. (Zhao et al, European Journal of Nuclear Medicine, 26, 231–238 (1999)). The anti-vascular effects of the agents were monitored by either positron emission tomography (PET) or by histologogical examination following treatment of mice bearing T50:80 murine breast tumours, or H460 human lung tumours. • (6) Anti-tumour efficacy of agents was determined in xenografts of H460 human lung cancer. Animals (n=5) were trated either with 5 daily injections and tumour size measured with time following treatment. • (7) The pharmacokinetic profile of agents was determined in mice following injection with drug. Blood was taken at various times following treatment and analysed by HPLC with UV detection. The HPLC conditions were isocratic using a 5 micron C18 BDS column (150×4.6) ad eluting with 75% MeOH in water with a detection wavelength of 290 nm. […] (AND(P)H:quinone oxidoreductace, EC 1.6.99.2). DT-diaphorase is an enzyme over-expressed in a number of human tumours. […] This two-electron reducing enzyme can be used to selectively activate prodrugs within cancers which over-express the enzyme.

Data set [4] relates to P388 murine leukaemia cell line. Nature of the data set: Cytotoxicity/growth inhibition assay (MTT), P388. Format: cell-based. The following applies: MTT. The protocol: as §2, with “This was carried out using a method based on that of Watts et al. (Anticancer Res., 17, 71–75, (1997)).” left out, “(Zhao et al, European Journal of Nuclear Medicine, 26, 231–238 (1999)).” left out, “detection.” for “detection. The HPLC conditions were isocratic using a 5 micron C18 BDS column (150×4.6) ad eluting with 75% MeOH in water with a detection wavelength of 290 nm.”

Data set [5] deals with K562 cells. Nature of the data set: In situ ultra violet irradiation of dosed K562 cells, IC50. The data set is classed as cell-based, human. The following applies: read-out: IC50 K562 (nm). The method, then:
Previously, the isomerisation study had been performed ex situ, i.e. in a photochemical reactor. However, it was necessary to illustrate the potential of the process as a real therapy by repeating the isomerization in the presence of the caner cells i.e. in situ. […] Following irradiation, the cells were incubated in the normal way and the IC50 values were determined.
These consisted of i) exposing K562 cells only (i.e. cells which were not dosed with any potential drug candidate) to ultra violet light, ii) preventing K562 cells dosed with drug candidate from being exposed to ultra violet light, and iii) preventing K562 cells only (i.e. cells which were not dosed with any potential drug candidate) from being exposed to ultra violet light. […]

Data set [6] is described as follows: Photocleavage and isomerisation of coupled trans-CA-4 ex situ, composition (HPLC). Format: physicochemical. The settings on record: benzene. The text has this:
The following compound retention times were observed:

In data set [7] the test system is K562. Briefly: IC50 of aliquots after ex situ irradiation in a photochemical reactor. The settings on record: for pIC50: read-out: IC50 K562, ex situ irradiation in benzene, 400W Hg lamp.
The subject of data set [8] is HUVEC. Briefly: Growth inhibition studies using HUVEC. The data set is classed as cell-based, human. The settings on record: Homo sapiens, HUVEC. The protocol:
as §1, §2

In data set [9] the test system is tubulin. Briefly: MA IC50 (Tables 12-26, abbreviation not defined). The data set is classed as biochemical.
The subject of data set [10] is tubulin. Nature of the data set: CD IC50 (Tables 12-26, abbreviation not defined). Format: binding.
[11] abbreviates: irradiation 20. mins [sic] (Table 8).
Where [12] appears, read: irradiation 10.0 mins (Table 8).
The mark [13] stands for this setting: irradiation 12.5 mins (Table 8).

In general, pIC50 refers to the negative decadic logarithm of the IC50, by convention in mol/L. A word on the IC50: it is the midpoint of a concentration-inhibition curve. Low values mean inhibition by little substance, high ones a need for much substance. In the case of `CCOc1cc(/C=C\c2ccc(OC)c(O)c2)cc(OCC)c1OCC` [Compound 31a, Z-1-(3′,4′,5′-triethoxyphenyl)-2-(3″-hydroxy-4″-methoxyphenyl)ethene], in data set [1] (Homo sapiens, K562), the pIC50 was 7.74. In data set [2], this compound gave an IC50 of 7.5 µM.

With `COc1ccc(/C=C\c2cc(OC)c(OC)c(OC)c2)cc1OC` [Compound 99-03H], the pIC50 in data set [3] was 6.92; in data set [4] it was 6.72; in data set [1], 7.22. Moreover, half-maximal inhibition in data set [2] (IC50) required 60 µM.

Turning to `CCOc1cc(/C=C\c2ccc(OC)c(F)c2)cc(OCC)c1OCC` [Compound 32a, Z-1-(3′,4′,5′-triethoxyphenyl)-2-(3″-fluoro-4″-methoxyphenyl)ethene], the pIC50 in data set [1] (Homo sapiens, K562) was 7.36. In data set [2], the concentration for half-maximal inhibition (IC50) is 18 µM.

For `COC(=O)CCCOc1cc([N+](=O)[O-])c(COc2cc(/C=C/c3cc(OC)c(OC)c(OC)c3)ccc2OC)cc1OC` [Compound E-8, Methyl 4-[2′-methoxy-4′-({2″-methoxy-5″-[(E)-2′″-3′″,4′″,5′″-trimethoxyphenylethenyl]phenoxy}-methyl)-5′-nitrophenoxy]butanoate], the negative-log IC50 (pIC50) is less than 4.00 in data set [5] (in situ UV 0 mins (Table 9)); 5.81 in data set [5] (in situ UV 0.5 mins (Table 9)); 6.35 in data set [5] (in situ UV 1 mins (Table 9)); 6.60 in [5] (in situ UV 1.5 mins (Table 9)); 6.89 in data set [5] (in situ UV 2 mins (Table 9)); 7.40 in data set [5] (in situ UV 3 mins (Table 9)). Further, the pIC50 in data set [5] (in situ UV 4 mins (Table 9)) was 7.96; in data set [5] (in situ UV 5 mins (Table 9)) it was 8.05; in data set [5] (in situ UV 7.5 mins (Table 9)), 8.30; in data set [5] (in situ UV 10 mins (Table 9)), 8.70; in data set [5] (in situ UV 12.5 mins (Table 9)), 8.52; in [5] (in situ UV 15 mins (Table 9)), 8.52. Moreover, the pIC50 in [5] (in situ UV 17.5 mins (Table 9)) was 8.70; in data set [5] (in situ UV 20 mins (Table 9)), 8.70; in [7] (0 mins (Table 8)) it was less than 3.82; in data set [7] (20. mins as printed (Table 8)), 7.23; in data set [7] (0.5 mins (Table 8)) it was 4.84; in data set [7] (1.0 mins (Table 8)), 6.35. For the same compound, the pIC50 in [7] (1.5 mins (Table 8)) was 7.05; in [7] (3.0 mins (Table 8)), 7.85; in data set [7] (4.0 mins (Table 8)) it was 7.92; in data set [7] (5.0 mins (Table 8)), 8.10; in data set [7] (7.5 mins (Table 8)), 8.40; in [7] (10.0 mins (Table 8)), 8.22. Also, the pIC50 in data set [7] (12.5 mins (Table 8)) is 8.70; in data set [7] (15.0 mins (Table 8)) it was 8.70; in data set [7] (17.5 mins (Table 8)), 8.40; in [7] (20.0 mins (Table 8)) it was 8.52. Also, the “% coupled trans-CA-4 (E-8)” value is reported as 100% in [6] (irradiation 0 mins (Table 8)); 72% in data set [6] (setting [11]); 93% in data set [6] (irradiation 0.5 mins (Table 8)); 88% in data set [6] (irradiation 1.0 mins (Table 8)); 80% in data set [6] (irradiation 1.5 mins (Table 8)); 62% in [6] (irradiation 3.0 mins (Table 8)). Moreover, the “% coupled trans-CA-4 (E-8)” value in data set [6] (irradiation 4.0 mins (Table 8)) came to 61%; in data set [6] (irradiation 5.0 mins (Table 8)), 53%; in data set [6] (irradiation 7.5 mins (Table 8)), 42%; in data set [6] (setting [12]), 34%; in data set [6] (setting [13]), 20%. Moreover, the “% cis-CA-4” value in data set [6] (setting [11]) is on record as 9%; in data set [6] (irradiation 1.0 mins (Table 8)) it was 4%; in [6] (irradiation 1.5 mins (Table 8)), 8%; in data set [6] (irradiation 3.0 mins (Table 8)), 11%; in [6] (irradiation 4.0 mins (Table 8)), 8%; in data set [6] (irradiation 5.0 mins (Table 8)) it was 10%. The “% cis-CA-4” value in [6] (irradiation 7.5 mins (Table 8)) was found to be 13%; in data set [6] (setting [12]), 19%; in data set [6] (setting [13]), 45%. The “% trans-CA-4” value in [6] (setting [11]) turned out to be 19%; in [6] (irradiation 0.5 mins (Table 8)), 7%; in data set [6] (irradiation 1.0 mins (Table 8)), 8%; in data set [6] (irradiation 1.5 mins (Table 8)) it was 12%; in data set [6] (irradiation 3.0 mins (Table 8)) it was 27%; in data set [6] (irradiation 4.0 mins (Table 8)), 31%. Further, the “% trans-CA-4” value in [6] (irradiation 5.0 mins (Table 8)) turned out to be 37%; in data set [6] (irradiation 7.5 mins (Table 8)), 45%; in data set [6] (setting [12]), 47%; in data set [6] (setting [13]) it was 35%. In addition, in [7] (K562), the “times less cytotoxic than trans-CA-4” value is reported as 5.

Consider `COc1ccc(/C=C\c2cc(OC)c(OC)c(OC)c2)cc1` [Compound 32], for which the pIC50 in data set [1] (Homo sapiens, K562) is 8.40; in data set [8], 8.22; in data set [9], 6.70; in [10] it was 5.26.

In the case of `CC/C(=C/c1cc(OC)c(OC)c(OC)c1)c1ccc(OC)c(O)c1` [Compound 45], the pIC50 in [1] (Homo sapiens, K562) was 6.92. In addition, the IC50 in data set [2] amounted to 1.8 µM.
